US6664224B2, “Quaternary ammonium salt and process for the preparation thereof” (priority 2000, dated 2003)

Key:
[1] = test system: Escherichia coli K12 W 3110; assay: Minimum development inhibiting concentration (MIC) against bacteria, broth dilution method; assay type: cell-based; conditions: for MIC: Escherichia coli, K12W3110, 37° C. 24 hours; for MIC Escherichia coli K12 W 3110: 37° C. 24 hours
Procedure: A bacteria solution in stationary state which had been adjusted with a nutrient broth according to an ordinary broth dilution method such that the concentration of bacterial suspension reached 10^6 cell/ml was added to chemical solutions having concentrations which vary stepwise where it was then allowed to stand at a temperature of 37° C. for 24 hours for culture. The bacteria solution was then examined to see if the proliferation of bacteria occurred. Thus, MIC was determined.
Escherichia coli K12 W 3110 was used as a sample bacterium. Compounds obtained in Examples 1 to 9 and benzalkonium chloride prepared in Comparative Example 1 were used as test samples.
The compounds obtained in Examples 10 to 19 and benzalkonium chloride were determined for MIC value against Escherichia coli K12 W 3110 in the same manner as in Test Example 3.

Erythrocyte = assay: Minimum hemolytic activity concentration against erythrocyte; assay type: cell-based; conditions: human erythrocyte, 37° C. 1 hour, O.D.540, 50% hemolysis
Procedure: Human blood was collected. The sample blood was then mixed with the equal amount of alsebar solution (glucose: 2.05 g; NaCl: 0.42 g; sodium citrate: 0.8 g; citric acid: 0.55 g; pH: 6.1). The mixture was then stored at a temperature of 4° C. Shortly before used for experiment, the alsebar stored blood was subjected to centrifugal separation. Thus, the supernatant liquid and the leukocyte layer on the erythrocyte were removed. To the erythrocyte was then added PBS in an amount of […] that of the erythrocyte to obtain a 50% erythrocyte. 10 μl of the 50% erythrocyte was then mixed with 990 μl of each of chemicals which had been diluted with PBS in amounts varying stepwise. The erythrocyte was acted upon by the chemical at a temperature of 37° C. for 1 hour. The mixture was then subjected to centrifugal separation. The supernatant liquid was collected for the measurement of the optical density at 540 nm (O.D.540). Separately, the foregoing procedure was followed except that no chemicals were used to prepare a 0% hemolytic control. The foregoing procedure was followed except that Milliq water was used instead of PBS to prepare a 100% hemolytic control. For the minimum hemolytic activity concentration of chemical, the minimum concentration at which the hemolytic concentration is […] was determined.

Compound	MIC [1]	MIC Escherichia coli K12 W 3110 [1]	Minimum hemolytic activity concentration Erythrocyte (Erythrocyte)
CCCCCCCC[N+](C)(CCCCCC)Cc1c(C)cc(C)c(C[N+](C)(CCCCCC)CCCCCCCC)c1C.[Cl-].[Cl-] (stereo not shown) [BAMT-6, 8, 2,4-bis(N-octyl-N-hexyl-N-methylammoniomethyl)-1,3,5-trimethylbenzene dichloride]	1 µg/mL		
1,4-bis(N,N-dioctyl-N-methylammoniomethyl)-2,3,5,6-tetramethylphenylene dichloride [BAMD-8]		1 ppm	
CCCCCCCC[n+]1ccc(SCc2ccc(CSc3cc[n+](CCCCCCCC)cc3)cc2)cc1.[I-].[I-] [Example I-8, 4,4′-(p-xylyldithio)-bis(1-octylpyridinium iodide), reference compound]			50 ppm
CCCCC[N+](C)(CCCCC)Cc1c(C)c(C)c(C[N+](C)(CCCCC)CCCCC)c(C)c1C.[Cl-].[Cl-] [BAMD-5, 1,4-bis(N,N-dipentyl-N-methylammoniomethyl)-2,3,5,6-tetramethylphenylene dichloride]		2 ppm	800 ppm
CCCCCCCCCCCC[N+](C)(C)Cc1ccc(C[N+](C)(C)CCCCCCCCCCCC)cc1.[Cl-].[Cl-] [Example 4BADMP-12C, 1,4-bis(N-dodecyl-N,N-dimethylammoniomethyl)phenylene dichloride, reference compound]			12.5 ppm
CCCCCCCC[N+](C)(CCCC)Cc1ccc(C[N+](C)(CCCC)CCCCCCCC)cc1.[I-].[I-] (stereo not shown) [4BAMP-4, 8I, 1,4-bis(N-butyl-N-octyl-N-methylammoniomethyl)phenylene diiodide]		2 ppm	
1,4-bis(N,N-butyl-N-methylammoniomethyl)-2,3,5,6-tetramethylphenylene dichloride [BAMD-4]		16 ppm	
CCCCCCCC[N+](C)(CCCCCCCC)Cc1c(C)cc(C)c(C[N+](C)(CCCCCCCC)CCCCCCCC)c1C.[Cl-].[Cl-] [BAMT-8, 2,4-bis(N,N-dioctyl-N-methylammoniomethyl)-1,3,5-trimethylbenzene dichloride]	1 µg/mL		
CCCCCC[N+](C)(CCCC)Cc1ccc(C[N+](C)(CCCC)CCCCCC)cc1.[I-].[I-] (stereo not shown) [4BAMP-4, 6I, 1,4-bis(N-butyl-N-hexyl-N-methylammoniomethyl)phenylene diiodide]		16 ppm	
1,4-bis(N,N-dipentyl-N-methylammoniomethyl)phenylene di-p-tolyenesulfonate [Example 4BAMP-5S]		16 ppm	400 ppm
CCCC[N+](C)(CCCC)Cc1c(C)cc(C)c(C[N+](C)(CCCC)CCCC)c1C.[Cl-].[Cl-] [BAMT-4, 2,4-bis(N,N-dibutyl-N-methylammoniomethyl)-1,3,5-trimethylbenzene dichloride]	8 µg/mL		
1,4-bis(N,N-dioctyl-N-methylammoniomethyl)phenylene di-p-toluenesulfonate [Example 4BAMP-8S]		1 ppm	
CCCCC[N+](C)(CCCCC)Cc1c(C)cc(C)c(C[N+](C)(CCCCC)CCCCC)c1C.[Cl-].[Cl-] [BAMT-5, 2,4-bis(N,N-dipentyl-N-methylammoniomethyl)-1,3,5-trimethylbenzene dichloride]	2 µg/mL		800 ppm
CCCCCC[N+](C)(CCCCCC)Cc1ccccc1C[N+](C)(CCCCCC)CCCCCC.[Cl-].[Cl-] [Example 2BAMP-6C, 1,2-bis(N,N-dihexyl-N-methylammoniomethyl)phenylene dichloride]		1 ppm	
CCCCCCCC[N+](C)(CCCCCCCC)Cc1ccc(C[N+](C)(CCCCCCCC)CCCCCCCC)cc1.[Cl-].[Cl-] [Example 4BAMP-8C, 1,4-bis(N,N-dioctyl-N-methylammoniomethyl)phenylene dichloride]		1 ppm	
CCCCCC[N+](C)(CCCCCC)Cc1cccc(C[N+](C)(CCCCCC)CCCCCC)c1.[Cl-].[Cl-] [Example 3BAMP-6C, 1,3-bis(N,N-dihexyl-N-methylammoniomethyl)phenylene dichloride]		1 ppm	
